Assays:
[1] = biological target: human A2A adenosine receptor (Homo sapiens (Human), UniProt P29274); assay: A2A receptor affinity binding assay (radioligand filtration binding or SPA, [3H]SCH58261); settings: membranes from HEK293 or CHO cells expressing human A2A; Method (A) filtration or Method (B) SPA
[2] = biological target: human A2B adenosine receptor (Homo sapiens (Human), UniProt P29275); assay: A2B binding affinity radioligand filtration binding assay; settings: membranes from HEK293 cells expressing human A2B; tritiated proprietary A2B antagonist
Chain of human A2B adenosine receptor (P29275 whole entry): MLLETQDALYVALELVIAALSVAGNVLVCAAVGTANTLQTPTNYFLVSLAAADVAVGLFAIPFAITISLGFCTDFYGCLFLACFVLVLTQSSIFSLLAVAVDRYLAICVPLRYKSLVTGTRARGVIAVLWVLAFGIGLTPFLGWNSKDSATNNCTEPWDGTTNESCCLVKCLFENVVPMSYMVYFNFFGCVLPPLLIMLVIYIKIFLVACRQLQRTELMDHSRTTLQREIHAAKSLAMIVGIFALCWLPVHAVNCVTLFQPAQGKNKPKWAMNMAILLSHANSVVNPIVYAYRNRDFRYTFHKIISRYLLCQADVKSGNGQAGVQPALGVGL

Chain of human A2A adenosine receptor (P29274 whole entry): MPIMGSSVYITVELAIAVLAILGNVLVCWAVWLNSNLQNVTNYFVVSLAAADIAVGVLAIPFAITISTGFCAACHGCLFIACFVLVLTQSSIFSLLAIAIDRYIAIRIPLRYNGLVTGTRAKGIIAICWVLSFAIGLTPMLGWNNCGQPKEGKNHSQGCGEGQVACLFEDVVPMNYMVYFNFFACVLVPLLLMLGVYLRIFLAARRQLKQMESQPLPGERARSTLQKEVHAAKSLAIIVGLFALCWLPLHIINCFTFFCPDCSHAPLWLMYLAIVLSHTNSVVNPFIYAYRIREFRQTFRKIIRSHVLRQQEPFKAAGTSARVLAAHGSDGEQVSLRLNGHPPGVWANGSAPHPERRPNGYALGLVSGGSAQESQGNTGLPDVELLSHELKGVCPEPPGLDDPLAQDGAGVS

Row | SMILES | IC50 [1] [µM] | IC50 [2] [µM]
1 | COc1cccc2c1nc(N)n1nc(C3CC3c3ccc4c(c3)CNC4=O)nc21 (stereo not shown) [Ex-8, 5-[2-(5-amino-7-methoxy[1,2,4]triazolo [1,5-c]quinazolin-2-yl)cyclopropyl]-2,3-dihydro-1H-isoindol-1-one] | 0.0015 | 0.031
2 | COc1cccc2c1nc(N)n1nc(C3CC3c3cnn(C)c3)nc21 (stereo not shown) [Ex-27, 7-methoxy-2-[2-(1-methyl-1H-pyrazol-4-yl)cyclopropyl][1,2,4] triazolo[1,5-c] quinazolin-5-amine] | 0.0974 | 0.865
3 | COc1cccc2c1nc(N)n1nc(C3CC3Cc3ccc(F)cc3)nc21 (stereo not shown) [Ex-41] | 0.007 | 0.127
4 | CNC(=O)c1ccc(C2CC2c2nc3c4cccc(OC)c4nc(N)n3n2)cc1 (stereo not shown) [Ex-19, 4-[2-(5-amino-7-methoxy[1,2,4]triazolo [1,5-c]quinazolin-2-yl)cyclopropyl]-N-methylbenzamide] | 0.0058 | 0.0329
5 | COc1cccc2c1nc(N)n1nc([C@H]3C[C@@](N)(c4ccc(C(C)(C)O)cn4)C3)nc21 [Ex-138, 2-(6-((l1,3r)-1-amino-3-(5-amino-7-methoxy-[1,2,4]triazolo[1,5-c]quinazolin-2-yl)cyclobutyl)pyridin-3-yl)propan-2-ol] | 0.0098 | 0.0125
6 | COc1cccc2c1nc(N)n1nc(C3CC3c3cccc4c3CNC4=O)nc21 (stereo not shown) [Ex-20, 4-[2-(5-amino-7-methoxy[1,2,4]triazolo [1,5-c]quinazolin-2-yl)cyclopropyl]-2,3-dihydro-1H-isoindol-1-one] | 0.0065 | 0.395
7 | COc1cccc2c1nc(N)n1nc([C@@H]3C[C@H]3c3cnn(C)c3)nc21 [Ex-2, 7-methoxy-2-((1r,2r)-2-(1-methyl-1H-pyrazol-4-yl)cyclopropyl)-[1,2,4]triazolo[1,5-c]quinazolin-5-amine] | 0.0026 | 0.0504
8 | COc1cccc2c1nc(N)n1nc([C@H]3C[C@@H](c4ccc(C(C)(C)N)cn4)C3)nc21 [Ex-67, 2-((1s,3s)-3-(5-(2-aminopropan-2-yl)pyridin-2-yl)cyclobutyl)-7-methoxy-[1,2,4]triazolo[1,5-c]quinazolin-5-amine] | 0.0043 | 0.0018
9 | COc1cc(F)cc2c1nc(N)n1nc([C@H]3C[C@](O)(c4ccc(C(C)(C)O)nc4)C3)nc21 [Ex-139, (1s,3s)-3-(5-amino-9-fluoro-7-methoxy-[1,2,4]triazolo[1,5-c]quinazolin-2-yl)-1-(6-(2-hydroxypropan-2-yl)pyridin-3-yl)cyclobutan-1-ol] | 0.0359 | 2.49
10 | COc1cccc2c1nc(N)n1nc(C3CC3c3ccc4nncn4c3)nc21 (stereo not shown) [Ex-13, 7-methoxy-2-[2-([1,2,4]triazolo[4,3-a]pyridin-6-yl)cyclopropyl][1,2,4] triazolo[1,5-c] quinazolin-5-amine] | 0.0033 | 0.151
11 | COc1cccc2c1nc(N)n1nc(C3CC3c3ccc4nnc(C)n4c3)nc21 (stereo not shown) [Ex-9, 7-methoxy-2-[2-(3-methyl[1,2,4]triazolo [4,3-a]pyridin-6-yl)cyclopropyl][1,2,4] triazolo[1,5-c] quinazolin-5-amine] | 0.002 | 0.337
12 | COc1cccc2c1nc(N)n1nc(C3CC3c3cccc(NC(C)=O)c3)nc21 (stereo not shown) [Ex-5, N-{3-[2-(5-amino-7-methoxy[1,2,4]triazolo [1,5-c]quinazolin-2-yl)cyclopropyl]phenyl} acetamide] | 0.0005 | 0.0154
13 | COc1cccc2c1nc(N)n1nc([C@H]3C[C@H](c4cccc(C(C)(C)O)c4)C3)nc21 [Ex-46, 2-{3-[trans-3-(5-amino-7-methoxy [1,2,4]triazolo [1,5-c]quinazolin-2-yl)cyclobutyl]phenyl} propan-2-ol] | 0.0183 | 0.069
14 | COc1cccc2c1nc(N)n1nc(C3CC3C)nc21 (stereo not shown) [Ex-10, 7-methoxy-2-[2-methylcyclopropyl] [1,2,4]triazolo[1,5-c] quinazolin-5-amine] | 0.0026 | 0.0454
15 | COc1cccc2c1nc(N)n1nc([C@H]3C[C@H](c4ncc(C(C)(C)N)cc4F)C3)nc21 [Ex-85, 2-{trans-3-[5-(2-aminopropan-2-yl)-3-fluoropyridin-2-yl]cyclobutyl}-7-methoxy[1,2,4]triazolo[1,5-c]quinazolin-5-amine] | 0.0027 | 0.0013
16 | COc1cccc2c1nc(N)n1nc(C3CC3Cc3ccc(F)cc3)nc21 (stereo not shown) [Ex-40, 2-(2-(4-fluorobenzyl)cyclopropyl)-7-methoxy-[1,2,4]triazolo[1,5-c]quinazolin-5-amine] | 0.0014 | 0.0076
17 | COc1cccc2c1nc(N)n1nc([C@H]3C[C@H](c4ccc(C(C)(C)O)cc4)C3)nc21 [Ex-43, 2-(4-((1r,3r)-3-(5-amino-7-methoxy-[1,2,4]triazolo[1,5-c]quinazolin-2-yl)cyclobutyl)phenyl)propan-2-ol] | 0.0109 | 0.0102
18 | CNC(=O)c1cccc(C2CC2c2nc3c4cccc(OC)c4nc(N)n3n2)c1 (stereo not shown) [Ex-4, 3-[2-(5-amino-7-methoxy[1,2,4]triazolo [1,5-c]quinazolin-2-yl)cyclopropyl]-N-methylbenzamide] | 0.0004 | 0.025

Row | SMILES | IC50 [1] [µM] | IC50 [2] [µM]
19 | COc1cc(F)cc2c1nc(N)n1nc(C3CC(c4ccc(C(C)(C)N)cn4)C3)nc21 (stereo not shown) [Ex-69, 2-{3-[5-(2-aminopropan-2-yl)pyridin-2-yl]cyclobutyl}-9-fluoro-7-methoxy[1,2,4]triazolo[1,5-c]quinazolin-5-amine] | 0.0062 | 0.0003
20 | COc1cccc2c1nc(N)n1nc(C3CC3c3ccc(C)nc3)nc21 (stereo not shown) [Ex-11, 7-methoxy-2-[2-(6-methylpyridin-3-yl)cyclopropyl][1,2,4] triazolo[1,5-c] quinazolin-5-amine] | 0.0031 | 0.0784
21 | COc1cccc2c1nc(N)n1nc(C3CC3c3ccc4c(c3)C(=O)NC4)nc21 (stereo not shown) [Ex-6, 6-[2-(5-amino-7-methoxy[1,2,4]triazolo [1,5-c]quinazolin-2-yl)cyclopropyl]-2,3-dihydro-1H-isoindol-1-one] | 0.0009 | 0.0132
22 | COc1cccc2c1nc(N)n1nc([C@H]3C[C@H](c4ncc(C(C)(C)N)nc4C)C3)nc21 [Ex-90, 2-((1r,3r)-3-(5-(2-aminopropan-2-yl)-3-methylpyrazin-2-yl)cyclobutyl)-7-methoxy-[1,2,4]triazolo[1,5-c]quinazolin-5-amine] | 0.0006 | 0.0112
23 | COc1cccc2c1nc(N)n1nc([C@@H]3C[C@H]3c3ccccc3)nc21 [Ex-34, 7-methoxy-2-[(1r,2r)-2-phenylcyclopropyl] [1,2,4]triazolo[1,5-c] quinazolin-5-amine] | 0.0001 | 0.0182
24 | COc1cccc2c1nc(N)n1nc(C3CC3c3cncc(C(C)(C)O)c3)nc21 (stereo not shown) [Ex-16, 2-{5-[2-(5-amino-7-methoxy[1,2,4]triazolo [1,5-c]quinazolin-2-yl)cyclopropyl]pyridin-3-yl} propan-2-ol] | 0.004 | 0.0155
25 | CCn1cc(C2CC2c2nc3c4cccc(OC)c4nc(N)n3n2)cn1 (stereo not shown) [Ex-14, 2-[2-(1-ethyl-1H-pyrazol-4-yl)cyclopropyl]-7-methoxy[1,2,4]triazolo [1,5-c]quinazolin-5-amine] | 0.0033 | 0.0561
26 | COc1cccc2c1nc(N)n1nc(C3CC3c3cnc(C)nc3)nc21 (stereo not shown) [Ex-26, 7-methoxy-2-[2-(2-methylpyrimidin-5-yl)cyclopropyl][1,2,4] triazolo[1,5-c] quinazolin-5-amine] | 0.0123 | 0.718
27 | COc1cccc2c1nc(N)n1nc(C3CC3c3ccccc3[C@H](C)O)nc21 (stereo partly drawn) [Ex-15, (1S)-1-{2-[2-(5-amino-7-methoxy[1,2,4]triazolo [1,5-c]quinazolin-2-yl)cyclopropyl]phenyl} ethan-1-ol] | 0.0034 | 1.84
28 | COc1cccc2c1nc(N)n1nc([C@@H]3C[C@H]3c3ccc(C(C)(C)O)cc3)nc21 [Ex-1, 2-(4-((1r,2r)-2-(5-amino-7-methoxy-[1,2,4]triazolo[1,5-c]quinazolin-2-yl)cyclopropyl)phenyl)propan-2-ol] | 0.0174 | 0.0263
29 | COc1cccc2c1nc(N)n1nc(C3(CO)CC3)nc21 [Ex-30, [1-(5-amino-7-methoxy[1,2,4]triazolo [1,5-c]quinazolin-2-yl)cyclopropyl]methanol] | 0.043 | 0.906
30 | COc1cccc2c1nc(N)n1nc(C3CC3c3cnn(CCO)c3)nc21 (stereo not shown) [Ex-23, 2-{4-[2-(5-amino-7-methoxy[1,2,4]triazolo [1,5-c]quinazolin-2-yl)cyclopropyl]-1H-pyrazol-1-yl} ethan-1-ol] | 0.0083 | 0.118
31 | COc1cccc2c1nc(N)n1nc(C3CC3c3c[nH]nc3C(F)(F)F)nc21 (stereo not shown) [Ex-25, 7-methoxy-2-{2-[3-(trifluoromethyl)-1H-pyrazol-4-yl]cyclopropyl} [1,2,4] triazolo[1,5-c] quinazolin-5-amine] | 0.0099 | 0.0963
32 | COc1cccc2c1nc(N)n1nc([C@H]3C[C@@H](c4cccc(C(C)(C)O)c4)C3)nc21 [Ex-47, 2-{3-[cis-3-(5-amino-7-methoxy [1,2,4]triazolo [1,5-c]quinazolin-2-yl)cyclobutyl]phenyl} propan-2-ol] | 0.0098 | 0.0106
33 | COc1cccc2c1nc(N)n1nc(C3(c4ccccc4)CC3)nc21 [Ex-37, 7-methoxy-2-(1-phenylcyclopropyl) [1,2,4]triazolo[1,5-c] quinazolin-5-amine] | 0.0177 | 1.98
34 | COc1cccc2c1nc(N)n1nc(C3CC3c3ccc4c(c3)NCCO4)nc21 (stereo not shown) [Ex-24, 2-[2-(3,4-dihydro-2H-1,4-benzoxazin-6-yl)cyclopropy1]-7-methoxy[1,2,4]triazolo [1,5-c]quinazolin-5-amine] | 0.009 | 0.0426
35 | COc1cccc2c1nc(N)n1nc(C3CC3c3ccc4c(c3)CCNC4)nc21 (stereo not shown) [Ex-38, 7-methoxy-2-[(1r,2r)-2-(1,2,3,4-tetrahydroisoquinolin-6-yl)cyclopropyl]-1,10b-dihydro[1,2,4]triazolo [1,5-c]quinazolin-5-amine] | 0.0011 | 0.0031

From patent US20250171447A1, “ADENOSINE RECEPTOR ANTAGONISTS, PHARMACEUTICAL COMPOSITIONS AND THEIR USE THEREOF” (Merck Sharp & Dohme LLC, priority 2022, published 2025)
